{
  "source": "patent US10227323B2",
  "about": "“Glucosylceramide synthase inhibitors for the treatment of diseases” (BIOMARIN PHARMACEUTICAL INC., priority 2013, dated 2019)",
  "data": [
    {"target": "T1, GCS (Canis lupus familiaris, UniProt A0A8I3MXG6)", "T1 sequence (A0A8I3MXG6 1-394)": "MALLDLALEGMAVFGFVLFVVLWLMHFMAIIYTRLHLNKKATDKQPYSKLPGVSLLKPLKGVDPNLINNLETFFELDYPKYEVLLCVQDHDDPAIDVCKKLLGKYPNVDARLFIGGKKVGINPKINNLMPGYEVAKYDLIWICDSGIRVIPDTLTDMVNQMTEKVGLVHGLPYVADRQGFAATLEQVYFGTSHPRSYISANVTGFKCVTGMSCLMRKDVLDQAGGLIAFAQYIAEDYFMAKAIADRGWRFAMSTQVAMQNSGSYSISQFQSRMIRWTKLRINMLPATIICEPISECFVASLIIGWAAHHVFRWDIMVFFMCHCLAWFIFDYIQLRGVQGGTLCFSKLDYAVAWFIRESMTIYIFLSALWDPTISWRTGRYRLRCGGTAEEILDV", "experiment": "Assay 1: GCS Enzymatic Assay (MDCK cell lysate, C6-NBD-Ceramide, LC/MS)", "format": "biochemical, canine", "settings": "Table 1; MDCK cell lysate; read-out: IC50 (nM) generated from Assay 1", "procedure,_shortened": "(§1)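 LC/MS/MS measurement of glucosylceramide and NBD-ceramide after a 1 h, 37 °C reaction with 100 μM UDP-glucose and 10 μM C6-NBD-ceramide gave IC50s or percent inhibition.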", "units": {"IC50": "nM"}, "values": [
      {"molecule": "O=C(N[C@H](CN1CCCC1)[C@H](O)c1ccc2c(c1)OCCO2)C(F)(F)C1Cc2ccc(-c3ccccn3)cc2C1", "note": "(stereo partly drawn) [Compound 50, N-((1R,2R)-1-(2,3-dihydrobenzo[b][1,4]dioxin-6-yl)-1-hydroxy-3-(pyrrolidin-1-yl)propan-2-yl)-2,2-difluoro-2-(5-(pyridin-2-yl)-2,3-dihydro-1H-inden-2-yl)acetamide]", "IC50": "< 50"},
      {"molecule": "O=C(N[C@H](CN1CC2CCC1C2)[C@H](O)c1ccc2c(c1)OCCO2)C(F)(F)c1cc2cc(Cl)ccc2o1", "note": "(stereo partly drawn) [Compound 51, N-((1R,2R)-3-(2-azabicyclo[2.2.1]heptan-2-yl)-1-(2,3-dihydrobenzo[b][1,4]dioxin-6-yl)-1-hydroxypropan-2-yl)-2-(5-chlorobenzofuran-2-yl)-2,2-difluoroacetamide]", "IC50": "< 50"},
      {"molecule": "O=C(N[C@H](CN1CCCC1)[C@H](O)c1ccc(OC2CC2)c(Cl)c1)C(F)(F)CCc1ccc2ccccc2c1", "note": "[Compound 52, N-((1R,2R)-1-(3-chloro-4-cyclopropoxyphenyl)-1-hydroxy-3-(pyrrolidin-1-yl)propan-2-yl)-2,2-difluoro-4-(naphthalen-2-yl)butanamide]", "IC50": "< 50"},
      {"molecule": "O=C(N[C@H](CN1C2CCC1CC2)[C@H](O)c1ccc2c(c1)OCCO2)C(F)(F)c1cc2cc(Cl)ccc2o1", "note": "[Compound 53, N-((1R,2R)-3-(7-azabicyclo[2.2.1]heptan-7-yl)-1-(2,3-dihydrobenzo[b][1,4]dioxin-6-yl)-1-hydroxypropan-2-yl)-2-(5-chlorobenzofuran-2-yl)-2,2-difluoroacetamide]", "IC50": "< 50"},
      {"molecule": "COc1ccc([C@@H](O)[C@@H](CN2CCCC2)NC(=O)C(F)(F)c2cc3cc(Cl)ccc3o2)cn1", "note": "[Compound 56, 2-(5-chlorobenzofuran-2-yl)-2,2-difluoro-N-((1R,2R)-1-hydroxy-1-(6-methoxypyridin-3-yl)-3-(pyrrolidin-1-yl)propan-2-yl)acetamide]", "IC50": "< 50"},
      {"molecule": "[2H][C@@](O)(c1ccc2c(c1)OCCO2)[C@@H](CN1CCCC1)NC(=O)C(F)(F)c1cc2cc(Cl)ccc2o1", "note": "[Compound 57, 2-(5-chlorobenzofuran-2-yl)-N-((1R,2R)-1-(2,3-dihydrobenzo[b][1,4]dioxin-6-yl)-1-deutero-1-hydroxy-3-(pyrrolidin-1-yl)propan-2-yl)-2,2-difluoroacetamide]", "IC50": "< 50"},
      {"molecule": "O=C(N[C@H](CN1CCCC1)C(O)c1ccc2c(c1)OCCO2)C(F)(F)c1cc2cc(Cl)ccc2o1", "note": "(stereo partly drawn) [Compound 57B, N-[2-(2H,3H-benzo[e]1,4-dioxan-6-yl)(1R)-2-hydroxy-1-(pyrrolidinylmethyl)ethyl]-2-(5-chlorobenzo[d]furan-2-yl)-2,2-difluoroacetamide]", "IC50": "< 50"},
      {"molecule": "COc1ccc([C@@H](O)[C@@H](CN2CCCC2)NC(=O)C(F)(F)c2cc3cc(Cl)ccc3o2)cc1C(F)F", "note": "[Compound 59, 2-(5-chlorobenzofuran-2-yl)-N-((1R,2R)-1-(3-(difluoromethyl)-4-methoxyphenyl)-1-hydroxy-3-(pyrrolidin-1-yl)propan-2-yl)-2,2-difluoroacetamide]", "IC50": "50 to 5000"},
      {"molecule": "[2H]C([2H])(C(=O)N[C@H](CN1CCCC1)[C@H](O)c1ccc2c(c1)OCCO2)c1cc2cc(Cl)ccc2o1", "note": "[Compound 60, 2-(5-chlorobenzofuran-2-yl)-N-((1R,2R)-1-(2,3-dihydrobenzo[b][1,4]dioxin-6-yl)-1-hydroxy-3-(pyrrolidin-1-yl)propan-2-yl)-2,2-dideutero-acetamide]", "IC50": "< 50"},
      {"molecule": "O=C(N[C@H](CN1CCCC1)[C@H](O)c1ccc2c(c1)OCCO2)C(F)(F)C1Cc2ccc(Cl)cc2C1", "note": "(stereo partly drawn) [Compound 63, 2-(5-chloro-2,3-dihydro-1H-inden-2-yl)-N-((1R,2R)-1-(2,3-dihydrobenzo[b][1,4]dioxin-6-yl)-1-hydroxy-3-(pyrrolidin-1-yl)propan-2-yl)-2,2-difluoroacetamide]", "IC50": "< 50"},
      {"molecule": "O=C(N[C@H](CN1CCCC1)[C@H](O)c1cc(F)c2c(c1)OCCO2)C(F)(F)c1cc2cc(Cl)ccc2o1", "note": "[Compound 64, 2-(5-chlorobenzofuran-2-yl)-2,2-difluoro-N-((1R,2R)-1-(8-fluoro-2,3-dihydrobenzo[b][1,4]dioxin-6-yl)-1-hydroxy-3-(pyrrolidin-1-yl)propan-2-yl)acetamide]", "IC50": "< 50"},
      {"molecule": "O=C(N[C@H](CN1CCCC1)[C@H](O)c1cc(Cl)c2c(c1)OCCO2)C(F)(F)c1cc2cc(Cl)ccc2o1", "note": "[Compound 65, N-((1R,2R)-1-(8-chloro-2,3-dihydrobenzo[b][1,4]dioxin-6-yl)-1-hydroxy-3-(pyrrolidin-1-yl)propan-2-yl)-2-(5-chlorobenzofuran-2-yl)-2,2-difluoroacetamide]", "IC50": "< 50"},
      {"molecule": "CC1CN(C[C@@H](NC(=O)C(F)(F)c2cc3cc(Cl)ccc3o2)[C@H](O)c2ccc3c(c2)OCCO3)C1", "note": "[Compound 66, 2-(5-chlorobenzofuran-2-yl)-N-((1R,2R)-1-(2,3-dihydrobenzo[b][1,4]dioxin-6-yl)-1-hydroxy-3-(3-methylazetidin-1-yl)propan-2-yl)-2,2-difluoroacetamide]", "IC50": "< 50"},
      {"molecule": "O=C(N[C@H](CN1CCCC1)[C@H](O)c1ccc(OC2CC2)c(Cl)c1)C(F)(F)C1Cc2ccc(Cl)cc2C1", "note": "(stereo partly drawn) [Compound 67, 2-(5-chloro-2,3-dihydro-1H-inden-2-yl)-N-((1R,2R)-1-(3-chloro-4-cyclopropoxyphenyl)-1-hydroxy-3-(pyrrolidin-1-yl)propan-2-yl)-2,2-difluoroacetamide]", "IC50": "< 50"},
      {"molecule": "O=C(N[C@H](CN1CCCC1)[C@H](O)c1ccc(OC2CC2)c(Cl)c1)C(F)(F)c1cc2cc(C(F)(F)F)ccc2o1", "note": "[Compound 69, N-((1R,2R)-1-(3-chloro-4-cyclopropoxyphenyl)-1-hydroxy-3-(pyrrolidin-1-yl)propan-2-yl)-2,2-difluoro-2-(5-(trifluoromethyl)benzofuran-2-yl)acetamide]", "IC50": "< 50"}
    ]},
    {"target": "T1, GCS", "experiment": "Assay 1: GCS Enzymatic Assay (MDCK cell lysate, C6-NBD-Ceramide, LC/MS)", "format": "biochemical, canine", "settings": "Table 1; values marked *; MDCK cell lysate", "procedure,_shortened": "as §1", "values": [
      {"molecule": "Cn1ncc2ccc([C@@H](O)[C@@H](CN3CCCC3)NC(=O)C(F)(F)c3cc4cc(Cl)ccc4o3)cc21", "note": "[Compound 54, 2-(5-chlorobenzofuran-2-yl)-2,2-difluoro-N-((1R,2R)-1-hydroxy-1-(1-methyl-1H-indazol-6-yl)-3-(pyrrolidin-1-yl)propan-2-yl)acetamide]", "% inhibition generated from Assay 1": "B* (the compound had a % inhibition of greater than or equal to about 3% but less than about 50%)"},
      {"molecule": "Cn1ncc2ccc([C@H](O)[C@@H](CN3CCCC3)NC(=O)C(F)(F)c3cc4cc(Cl)ccc4o3)cc21", "note": "[Compound 54G, 2-(5-chlorobenzofuran-2-yl)-2,2-difluoro-N-((1S,2R)-1-hydroxy-1-(1-methyl-1H-indazol-6-yl)-3-(pyrrolidin-1-yl)propan-2-yl)acetamide]", "% inhibition generated from Assay 1": "B* (the compound had a % inhibition of greater than or equal to about 3% but less than about 50%)"},
      {"molecule": "[2H][C@](O)(c1ccc2c(c1)OCCO2)[C@@H](CN1CCCC1)NC(=O)C(F)(F)c1cc2cc(Cl)ccc2o1", "note": "[Compound 57C, 2-(5-chlorobenzofuran-2-yl)-N-((1S,2R)-1-(2,3-dihydrobenzo[b][1,4]dioxin-6-yl)-1-deutero-1-hydroxy-3-(pyrrolidin-1-yl)propan-2-yl)-2,2-difluoroacetamide]", "% inhibition generated from Assay 1": "B* (the compound had a % inhibition of greater than or equal to about 3% but less than about 50%)"},
      {"molecule": "COc1ccc([C@H](O)[C@@H](CN2CCCC2)NC(=O)C(F)(F)c2cc3cc(Cl)ccc3o2)cc1C(F)F", "note": "[Compound 59I, 2-(5-chlorobenzofuran-2-yl)-N-((1S,2R)-1-(3-(difluoromethyl)-4-methoxyphenyl)-1-hydroxy-3-(pyrrolidin-1-yl)propan-2-yl)-2,2-difluoroacetamide]", "% inhibition generated from Assay 1": "B* (the compound had a % inhibition of greater than or equal to about 3% but less than about 50%)"},
      {"molecule": "O=C(N[C@H](CN1CCCC1)[C@H](O)c1cc2c(cc1Br)OCCO2)C(F)(F)c1cc2cc(Cl)ccc2o1", "note": "[Compound 61, N-((1R,2R)-1-(7-bromo-2,3-dihydrobenzo[b][1,4]dioxin-6-yl)-1-hydroxy-3-(pyrrolidin-1-yl)propan-2-yl)-2-(5-chlorobenzofuran-2-yl)-2,2-difluoroacetamide]", "% inhibition generated from Assay 1": "B* (the compound had a % inhibition of greater than or equal to about 3% but less than about 50%)"},
      {"molecule": "CC1(C)CN(C[C@@H](NC(=O)C(F)(F)c2cc3cc(Cl)ccc3o2)[C@H](O)c2ccc3c(c2)OCCO3)C1", "note": "[Compound 62, 2-(5-chlorobenzofuran-2-yl)-N-((1R,2R)-1-(2,3-dihydrobenzo[b][1,4]dioxin-6-yl)-3-(3,3-dimethylazetidin-1-yl)-1-hydroxypropan-2-yl)-2,2-difluoroacetamide]", "% inhibition generated from Assay 1": "B* (the compound had a % inhibition of greater than or equal to about 3% but less than about 50%)"},
      {"molecule": "O=C(N[C@H](CN1CCCC1)[C@H](O)c1cc2cc(Cl)ccc2o1)C(F)(F)c1cc2cc(Cl)ccc2o1", "note": "[Compound 68, 2-(5-chlorobenzofuran-2-yl)-N-((1S,2R)-1-(5-chlorobenzofuran-2-yl)-1-hydroxy-3-(pyrrolidin-1-yl)propan-2-yl)-2,2-difluoroacetamide]", "% inhibition generated from Assay 1": "B* (the compound had a % inhibition of greater than or equal to about 3% but less than about 50%)"},
      {"molecule": "O=C(N[C@H](CN1CCCC1)[C@@H](O)c1cc2cc(Cl)ccc2o1)C(F)(F)c1cc2cc(Cl)ccc2o1", "note": "[Compound 68G, 2-(5-chlorobenzofuran-2-yl)-N-((1R,2R)-1-(5-chlorobenzofuran-2-yl)-1-hydroxy-3-(pyrrolidin-1-yl)propan-2-yl)-2,2-difluoroacetamide]", "% inhibition generated from Assay 1": "B* (the compound had a % inhibition of greater than or equal to about 3% but less than about 50%)"}
    ]}
  ]
}
